# Source: patent publication US11976083B2, “Inhibitors of peptidylarginine deiminases” (Gilead Sciences, Inc., priority 2020, dated 2024)
# pIC50: −log10 of the molar value.
# Biological target: T1, human PAD4 (Homo sapiens, UniProt Q9UM07)
# T1 construct: human PAD4 (NM_012387), A2-P663, was PCR amplified; His-SUMO (N, cleaved yes); made in house; host or cells: E. coli BL21(DE3)
# Experiment: In vitro PAD4 BAEE biochemical assay
# Details: BAEE substrate 3 mM, 5 nM PAD4, 2 mM calcium chloride; geometric mean of multiple experiments
# Outline: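 Fluorescence read-out (ex 405/em 535 nm) of isoindole formed from ammonia, o-phthalaldehyde and DTT after EDTA stop. Reaction: 5 nM PAD4, 2 mM CaCl2, 3 mM BAEE, 2 h, 25 °C, after 30 min enzyme–compound preincubation. Normalised to BB-Cl-Amidine (50 µM) and DMSO controls.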
# T1 sequence (Q9UM07 2-663): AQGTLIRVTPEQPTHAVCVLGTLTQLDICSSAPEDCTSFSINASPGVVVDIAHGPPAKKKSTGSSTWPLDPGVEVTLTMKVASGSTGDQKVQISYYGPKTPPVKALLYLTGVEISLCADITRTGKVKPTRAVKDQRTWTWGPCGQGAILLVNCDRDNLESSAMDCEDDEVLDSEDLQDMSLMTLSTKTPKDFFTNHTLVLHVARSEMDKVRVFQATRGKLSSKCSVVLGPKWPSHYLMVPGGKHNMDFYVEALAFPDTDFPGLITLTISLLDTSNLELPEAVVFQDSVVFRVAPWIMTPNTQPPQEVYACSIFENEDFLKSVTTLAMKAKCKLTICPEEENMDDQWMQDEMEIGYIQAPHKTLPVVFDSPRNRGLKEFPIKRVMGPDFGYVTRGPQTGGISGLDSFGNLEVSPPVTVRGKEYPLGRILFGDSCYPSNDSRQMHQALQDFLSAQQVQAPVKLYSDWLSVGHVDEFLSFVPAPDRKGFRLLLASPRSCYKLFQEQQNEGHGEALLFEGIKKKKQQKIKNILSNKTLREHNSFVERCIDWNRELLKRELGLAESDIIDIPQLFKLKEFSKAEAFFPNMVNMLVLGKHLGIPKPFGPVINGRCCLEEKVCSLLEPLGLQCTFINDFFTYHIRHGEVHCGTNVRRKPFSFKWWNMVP
row,SMILES,pIC50
1,"COc1cc(C(=O)N2C[C@H]3CC[C@@H]2[C@@H]3N)cc2nc(-c3cc4ccc5nc4n3CC(F)(F)CCC[C@@H]3C[C@H]3C(=O)N[C@@H]5C)n(C)c12 [Example 853, (2~{R},5~{R},7~{R})-14-[5-[(1~{R},4~{R},7~{R})-7-amino-2-azabicyclo[2.2.1]heptane-2-carbonyl]-7-methoxy-1-methyl-benzimidazol-2-yl]-11,11-difluoro-2-methyl-3,13,19-triazatetracyclo[11.5.2.0^ {5,7}.0^{16,20}]icosa-1(19), 14,16(20),17-tetraen-4-one]",7.32
2,"COc1cccc2c1C(=O)N[C@H](C)c1ccc3cc(-c4nc5cc(C(=O)N6CC[C@@H](OC)[C@@H](N)C6)cc(OC)c5n4C)n(c3n1)CCCCC2 [Example 854, (2~{R})-17-[5-[(3~{S},4~{R})-3-amino-4-methoxy-piperidine-1-carbonyl]-7-methoxy-1-methyl-benzimidazol-2-yl]-6-methoxy-2-methyl-3,16,22-triazatetracyclo[14.5.2.0^ {5,10}.0^{19,23}]tricosa-1(22),5(10),6,8,17,19(23),20-heptaen-4-one]",7.17
3,"COc1cc(C(=O)N2CC[C@@H](OC)[C@@H](N)C2)cc2nc(-c3cc4ccc5nc4n3CCCCCc3nccnc3C(=O)N(C)[C@@H]5C)n(C)c12 [Example 855, (2~{R})-17-[5-[(3~{S},4~{R})-3-amino-4-methoxy-piperidine-1-carbonyl]-7-methoxy-1-methyl-benzimidazol-2-yl]-2,3-dimethyl-3,6,9,16,22-pentazatetracyclo[14.5.2.0^ {5,10}.0^1923]tricosa-1(22),, 5(10),6,8,17,19(23),20-heptaen-4-one]",7.19
4,"COc1cc(C(=O)N2CC[C@@H](OC)[C@@H](N)C2)cc2nc(-c3cc4ccc5nc4n3CCCC(F)(F)C[C@H]3C[C@@H]3C(=O)N[C@@H]5C)n(C)c12 [Example 856, (2~{R},5~{S},7~{R})-14-[5-[(3~{S),4~{R})-3-amino-4-methoxy-piperidine-1-carbonyl]-7-methoxy-1-methyl-benzimidazol-2-yl]-9,9-difluoro-2-methyl-3,13,19-triazatetracyclo [11.5.2.0^{5,7}.0^{16,20}] icosa-1(19),14,16(20), 17-tetraen-4-one]",6.81
5,COc1cc(C(=O)N2CC[C@@H](OC)[C@@H](N)C2)cc2nc(-c3cc4ccc5nc4n3CCCC(F)(F)C[C@@H]3C[C@H]3C(=O)N[C@@H]5C)n(C)c12 [Example 857],7.89
6,"COc1cc(C(=O)N2CC[C@@H](OC)[C@@H](N)C2)cc2nc(-c3cc4ccc5nc4n3CCCC(F)(F)C[C@@H]3C[C@@H]3C(=O)N[C@@H]5C)n(C)c12 [Example 858, (2~{R},5~{S},7~{S})-14-[5-[(3~{S},4~{R})-3-amino-4-methoxy-piperidine-1-carbonyl]-7-methoxy-1-methyl-benzimidazol-2-yl]-9,9-difluoro-2-methyl-3,13,19-triazatetracyclo [11.5.2.0^{5,7}.0^{16,20}] icosa-1(19),14,16(20), 17-tetraen-4-one]",6.34
7,"COc1cc(C(=O)N2CC[C@@H](OC)[C@@H](N)C2)cc2nc(-c3cc4ccc5nc4n3CCCC(F)(F)C[C@H]3C[C@H]3C(=O)N[C@@H]5C)n(C)c12 [Example 859, (2~{R},5~{R},7~{R})-14-[5-[(3~{S},4~{R})-3-amino-4-methoxy-piperidine-1-carbonyl]-7-methoxy-1-methyl-benzimidazol-2-yl]-9,9-difluoro-2-methyl-3,13,19-triazatetracyclo [11.5.2.0^{5,7}.0^{16,20}] icosa-1(19),14,16(20),17-tetraen-4-one]",7.42
8,"COc1cc(C(=O)N2CC[C@@H](OC)[C@@H](N)C2)cc2nc(-c3cc4ccc5nc4n3CCCCCCC(c3ccccn3)C(=O)N[C@@H]5C)n(C)c12 (stereo partly drawn) [Example 860, (11~{R})-17-[5-[(3~{S),4~{R})-3-amino-4-methoxy-piperidine-1-carbonyl]-7-methoxy-1-methyl-benzimidazol-2-yl]-11-methyl-8-(2-pyridyl)-1,10,19-triazatricyclo [10.5.2.0^{15,18}]nonadeca-12(19),13,15(18),16-tetraen-9-one]",7.36
9,"COc1cc(C(=O)N2CC[C@@H](OC)[C@@H](N)C2)cc2nc(-c3cc4ccc5nc4n3CCCCCC[C@](C)(c3ccccn3)C(=O)N[C@@H]5C)n(C)c12 [Example 861, (8~{R},11~{R})-17-[5-[(3~ {S},4~{R})-3-amino-4-methoxy-piperidine-1-carbonyl]-7-methoxy-1-methyl-benzimidazol-2-yl]-8,11-dimethyl-8-(2-pyridyl)-1,10,19-triazatricyclo[10.5.2.0^{15,18}] nonadeca-12(19),13,15(18), 16-tetraen-9-one]",7.41

# Second part, the molecule after the results:
row,pIC50,SMILES
1,7.11,"COc1cc(C(=O)N2CC[C@@H](OC)[C@@H](N)C2)cc2nc(-c3cc4ccc5nc4n3CCCCCC[C@@](C)(c3ccccn3)C(=O)N[C@@H]5C)n(C)c12 [Example 862, (8~{S},11~{R})-17-[5-[(3~{S}, 4~{R})-3-amino-4-methoxy-piperidine-1-carbonyl]-7-methoxy-1-methyl-benzimidazol-2-yl]-8,11-dimethyl-8-(2-pyridyl)-1,10,19-triazatricyclo[10.5.2.0^{15,18}] nonadeca-12(19), 13,15(18),16-tetraen-9-one]"
2,7.16,"COc1nccc2c1C(=O)N[C@H](C)c1ccc3cc(-c4nc5cc(C(=O)N6CC[C@@H](OC)[C@@H](N)C6)cc(OC)c5n4C)n(c3n1)CCCCC2 [Example 863, (2~{R})-17-[5-[(3~{S},4~{R})-3-amino-4-methoxy-piperidine-1-carbonyl]-7-methoxy-1-methyl-benzimidazol-2-yl]-6-methoxy-2-methyl-3,7,16,22-tetrazatetracyclo[14.5.2.0^ {5,10}.0^{19,23}]tricosa-1(22), 5(10),6,8,17,19(23),20-heptaen-4-one]"
3,7.17,"COC[C@]12C[C@H]1CCCCCn1c(-c3nc4cc(C(=O)N5CC[C@@H](OC)[C@@H](N)C5)cc(OC)c4n3C)cc3ccc(nc31)[C@@H](C)NC2=O [Example 864, (2~{R},5~{S),7~{R})-14-[5-[(3~{S},4~{R})-3-amino-4-methoxy-piperidine-1-carbonyl]-7-methoxy-1-methyl-benzimidazol-2-yl]-5-(methoxymethyl)-2-methyl-3,13,19-triazatetracyclo [11.5.2.0^{5,7}.0^{16,20}] icosa-1(19),14,16(20), 17-tetraen-4-one]"
4,6.64,"COC[C@@]12C[C@@H]1CCCCCn1c(-c3nc4cc(C(=O)N5CC[C@@H](OC)[C@@H](N)C5)cc(OC)c4n3C)cc3ccc(nc31)[C@@H](C)NC2=O [Example 865, (2~{R},5~{R},7~{S})-14-[5-[(3~{S},4~{R})-3-amino-4-methoxy-piperidine-1-carbonyl]-7-methoxy-1-methyl-benzimidazol-2-yl]-5-(methoxymethyl)-2-methyl-3,13,19-triazatetracyclo[11.5.2.0^ {5,7}.0^{16,20}]icosa-1(19), 14,16(20),17-tetraen-4-one]"
5,7.10,"COc1cc(C(=O)N2CC[C@@H](OC)[C@@H](N)C2)cc2nc(-c3cc4ccc5nc4n3CCCc3cccc(c3)CC(=O)N[C@@H]5C)n(C)c12 [Example 866, (13˜{R})-19-[5-[(3˜{S},4˜{R})-3-amino-4-methoxy-piperidine-1-carbonyl]-7-methoxy-1-methyl-benzimidazol-2-yl]-13-methyl-1,12,21-triazatetracyclo[12.5.2.1^{5,9}.0^{17,20}]docosa-5,7,9(22),14(21),15,17(20),18-heptaen-11-one]"
6,7.36,"COc1cc(C(=O)N2CC[C@@H](OC)[C@@H](N)C2)cc2nc(-c3cc4ccc5nc4n3CC(F)(F)CCC[C@@H]3C[C@H]3C(=O)N(CC(F)F)[C@@H]5C)n(C)c12 [Example 867, (2~{R},5~{R},7~{R})-14-[5-[(3~{S},4~{R})-3-amino-4-methoxy-piperidine-1-carbonyl]-7-methoxy-1-methyl-benzimidazol-2-yl]-3-(2,2-difluoroethyl)-11,11-difluoro-2-methyl-3,13,19-triazatetracyclo[11.5.2.0^ {5,7).0^{16,20}]icosa-1(19),14,16(20),17-tetraen-4-one]"
7,7.43,"COc1cc(C(=O)N2CC[C@@H](OC)[C@@H](N)C2)cc2nc(-c3cc4ccc5nc4n3CC(F)(F)CCC[C@@H]3C[C@H]3C(=O)N(CC3CC3)[C@@H]5C)n(C)c12 [Example 868, (2~{R},5~{R},7~{R})-14-[5-[(3~{S},4~{R})-3-amino-4-methoxy-piperidine-1-carbonyl]-7-methoxy-1-methyl-benzimidazol-2-yl]-3-(cyclopropylmethyl)-11,11-difluoro-2-methyl-3,13,19-triazatetracyclo[11.5.2.0^ {5,7}.0^{16,20}]icosa-1(19), 14,16(20),17-tetraen-4-one]"
8,7.62,"COc1cc(C(=O)N2CC[C@@H](OC)[C@@H](N)C2)cc2nc(-c3cc4ccc5nc4n3CCCCCC[C@](F)(c3ccccn3)C(=O)N[C@@H]5C)n(C)c12 [Example 869, (8~{S},11~{R})-17-[5-[(3~ {S},4~{R})-3-amino-4-methoxy-piperidine-1-carbonyl]-7-methoxy-1-methyl-benzimidazol-2-yl]-8-fluoro-11-methyl-8-(2-pyridyl)-1,10,19-triazatricyclo[10.5.2.0^ {15,18}]nonadeca-12(19), 13,15(18),16-tetraen-9-one]"
9,7.08,"COc1cc(C(=O)N2CC[C@@H](OC)[C@@H](N)C2)cc2nc(-c3cc4ccc5nc4n3CCCCCC[C@@](F)(c3ccccn3)C(=O)N[C@@H]5C)n(C)c12 [Example 870, (8~{R},11~{R})-17-[5-[(3~ {S),4~{R})-3-amino-4-methoxy-piperidine-1-carbonyl]-7-methoxy-1-methyl-benzimidazol-2-yl]-8-fluoro-11-methyl-8-(2-pyridyl)-1,10,19-triazatricyclo[10.5.2.0^{15,18}] nonadeca-12(19), 13,15(18),16-tetraen-9-one]"
